Measurements from publication PMC9260081, “Design, Synthesis, and Evaluation of Anticonvulsant Activities of New Triazolopyrimidine Derivatives” (Frontiers in Chemistry, 2022).
Several values for one entry are separate records, joined by “and”; a condition that tells them apart may be missing. Identical values can stand only once. Like-named read-outs stand apart in the source and are kept apart here. Marks after values point to notes of the source that are not given here.

Assays:
BIC-induced seizures = assay: Bicuculline (BIC)-induced seizure test; type: in vivo; details: BIC 5.4 mg/kg, compound 30 mg/kg, test time 0.5 h, percentage of animals, 10 mice
Method: (§1) Male Kunming mice with weights from 18 to 22 g were used in all the pharmacological experiments. The mice were housed in the standard cages with 10 each, where a controlled temperature (25°C ± 2°C) with a 12 h light/dark cycle was maintained. All animals had free access to food and water. All experiments and procedures involving animals were carried out according to the Guide for the Care and Use of Laboratory Animals (National Academies Press, Washington, D.C., United States). Approval from the local medical ethical committee was obtained before the experiment.
(§2) In the BIC-induced seizure test, groups of 10 mice were administered with 30 mg/kg of test samples or vehicle. Then, 30 min later, the minimum dose of BIC (5.4 mg/kg) that could completely induce seizures for mice was subcutaneously injected into the test mice. The mice were placed into separate cages each, and the number of clonic seizures, tonic seizures, and mortality was recorded for 30 min.

PTZ-induced seizures = assay: Subcutaneous pentylenetetrazole (PTZ) test; type: in vivo, mice; details: for PTZ model, number of animals protected/number of animals tested: 30 mg/kg, 0.5 h; for minimal effective dose / ED50: Mus musculus; for minimal effective dose / ED50 / PI scPTZ, protective index (TD50/ED50): ip; for minimal effective dose: dosages 30, 100, 300 mg/kg, read-out: PTZ screening, minimum dose whereby bioactivity was demonstrated in half or more of the mice; for ED50: read-out: ED50 scPTZ; for PI scPTZ, protective index (TD50/ED50): male, Kunming, mouse, in vivo
Method: as §1
In the PTZ test, mice were subcutaneously administered with PTZ at the dose of 85 mg/kg. At this dose, mice can be elicited a threshold seizure characterized by an episode of clonic spasms and tonic spasms. After being treated with test compounds at doses of 300, 100, and 30 mg/kg, the mice were considered protected if a single episode of clonic spasms of more than 5 s duration was not obtained. The quantitative anticonvulsant activity (ED50) in the PTZ model was determined and calculated with the same method described in the MES test.

GABAA BZD receptor = assay: Radioligand receptor binding assay ([3H]-flumazenil competition); details: rat brain membranes; for IC50: competition with 0.5 nM [3H]-flumazenil, 95% CI in brackets; for Ki: competition with [3H]-flumazenil, Cheng–Prusoff
[1] = Neurotoxicity screening (rotarod test); type: in vivo; details: male, Kunming, mouse, in vivo, ip; rotarod, mice; 95% confidence interval in brackets
Method: as §1
(§3) The rotarod test was used to evaluate the neurotoxicity of the synthesized compounds. Before the formal experiments, mice were trained to climb on a rotating rod of diameter 3.2 cm with the rotation speed of 10 rpm. Test compounds in the three doses were intraperitoneally injected into the trained mice. […] The rough neurotoxic dose was obtained in which mice cannot maintain equilibrium on the rod for at least 1 min. The quantitative neurotoxic dose (TD50) of the test compounds was measured and calculated with the same method described in the MES test.

[2] = test system: ability to maintain equilibrium on rotating rod; assay: Neurotoxicity screening (rotarod test); type: in vivo; details: i.p., dosages 30, 100, 300 mg/kg
Method: as §1, §3

MES-induced seizures = assay: Maximal electroshock seizure (MES) test; type: in vivo, mice; details: for MES model, number of animals protected/number of animals tested: 30 mg/kg, 0.5 h; for minimal effective dose / ED50: Mus musculus, ip; for minimal effective dose: dosages 30, 100, 300 mg/kg, read-out: MES screening, minimum dose whereby bioactivity was demonstrated in half or more of the mice; for ED50: read-out: ED50 MES; for PI MES, protective index (TD50/ED50): TD50 rotarod / ED50 MES, mice i.p.
Method: as §1
In the MES test, mice were subjected to ear stimulation using a 0.2 s 60-Hz 50-mA alternating current to elicit seizures. Tonic hind limb extension was considered as the seizure occurring, and the vanishing of tonic hind limb extension indicates the protection against the MES-induced seizures. Mice were injected intraperitoneally with test compounds at doses of 300, 100, and 30 mg/kg to evaluate their general anticonvulsant activity. Half and 4 h intervals were chosen to test the anti-MES activity. […] A series of doses of the tested compounds were injected into the mice with 10 in one group.

3-MP-induced seizures = assay: 3-Mercaptopropionic acid (3-MP)-induced seizure test; type: in vivo; details: 3-MP 60 mg/kg; compound 30 mg/kg, test time 0.5 h; percentage of animals, 10 mice
Method: as §1
as §2, with “3-MP–induced” for “the BIC-induced”, “After” for “Then,”, “min,” for “min later,”, “3-MP (60” for “BIC (5.4”, “intraperitoneally” for “subcutaneously”

[3] = pretreated with flumazenil (FMZ) 10 mg/kg 15 min before seizure induction
[4] = pretreated with thiosemicarbazide (TSC) 25 mg/kg/day for 3 days
[5] = mice, 95% confidence interval in brackets

SMILES | Clonic seizure (%) (BIC-induced seizures) | Lethality (%) (BIC-induced seizures) | Tonic seizure (%) (BIC-induced seizures) | minimal effective dose (PTZ-induced seizures; mice, 0.5 h after injection) [mg/kg] | minimal effective dose (PTZ-induced seizures; mice, 4 h after injection) [mg/kg] | ED50 (PTZ-induced seizures; [5]) [mg/kg] | PI scPTZ, protective index (TD50/ED50) (PTZ-induced seizures) | IC50 (GABAA BZD receptor) [nM] | Ki (GABAA BZD receptor) [nM] | TD50 at 30 min [1] [mg/kg] | NT screening (rotarod), minimum neurotoxic dose in half or more of the mice ([2]; 0.5 h after injection) | NT screening (rotarod), minimum neurotoxic dose in half or more of the mice ([2]; 4 h after injection) | minimal effective dose (MES-induced seizures; mice, 0.5 h after injection) [mg/kg] | minimal effective dose (MES-induced seizures; mice, 4 h after injection) [mg/kg] | ED50 (MES-induced seizures; [5]) [mg/kg] | PI MES, protective index (TD50/ED50) (MES-induced seizures) | melting point [°C] | also measured
CCCCCCOc1ccc(-c2ccnc3ncnn23)cc1 [Compound 6d, 7-(4-(Hexyloxy)phenyl)-[1,2,4]triazolo[1,5-a]pyrimidine] | 10 | 0% | 0% | 30 | > 300 | 14.1 | 22.5 | 8.4 | 3.9 | 317 | 300 mg/kg | — (A dash indicates the absence of anticonvulsant activity and neurotoxicity at the maximum dose administered (300 mg/kg)) | 30 | 100 | 15.8 | 20.1 |  | PTZ model, number of animals protected/number of animals tested (PTZ-induced seizures; [3]): completely reversed and 0/5***; PTZ model, number of animals protected/number of animals tested (PTZ-induced seizures; [4]): completely reversed and 0/5***; PTZ model, number of animals protected/number of animals tested (PTZ-induced seizures; pretreatment with saline): full protection and 5/5; MES model, number of animals protected/number of animals tested (MES-induced seizures; [3]): completely reversed and 0/5***; MES model, number of animals protected/number of animals tested (MES-induced seizures; [4]): completely reversed and 0/5***; MES model, number of animals protected/number of animals tested (MES-induced seizures; pretreatment with saline): full protection and completely protected and 5/5 ^c and 5/5
CN1C(=O)CN=C(c2ccccc2)c2cc(Cl)ccc21 [Diazepam, reference compound] |  |  |  |  |  |  |  | 1.3 | 0.61 |  |  |  |  |  |  |  |  | ED50 (PTZ-induced seizures): 0.5 mg/kg; ED50 (MES-induced seizures): 10.1 mg/kg
CCCCCOc1ccc(-c2ccnc3ncnn23)cc1 [Compound 6c, 7-(4-(Pentyloxy)phenyl)-[1,2,4]triazolo[1,5-a]pyrimidine] |  |  |  | 30 | > 300 | 23.7 | 16.0 |  |  | 380 | — (A dash indicates the absence of anticonvulsant activity and neurotoxicity at the maximum dose administered (300 mg/kg)) | — (A dash indicates the absence of anticonvulsant activity and neurotoxicity at the maximum dose administered (300 mg/kg)) | 30 | 300 | 25.3 | 15.0 |  | 
NC(=O)N1c2ccccc2C=Cc2ccccc21 [Carbamazepine, reference compound] | 100 | 20** % | 0*** % |  |  | > 100 | <0.44 |  |  | 44 |  |  |  |  | 9.8 | 4.5 |  | Lethality (%) (BIC-induced seizures; listed as carbamazepine): significantly inhibited; Tonic seizure (%) (BIC-induced seizures; listed as carbamazepine): significantly inhibited; Clonic seizure (%) (3-MP-induced seizures): 100%; Lethality (%) (3-MP-induced seizures): 0** %; Tonic seizure (%) (3-MP-induced seizures): 0*** %
c1ccc(-c2ccnc3ncnn23)cc1 [Compound 3a, 7-Phenyl-[1,2,4]triazolo[1,5-a]pyrimidine] |  |  |  | 100 | > 300 |  |  |  |  |  | — (A dash indicates the absence of anticonvulsant activity and neurotoxicity at the maximum dose administered (300 mg/kg)) | — (A dash indicates the absence of anticonvulsant activity and neurotoxicity at the maximum dose administered (300 mg/kg)) | 300 | > 300 |  |  | 142 to 143 | 
Clc1ccccc1-c1ccnc2ncnn12 [Compound 3c, 7-(2-Chlorophenyl)-[1,2,4]triazolo[1,5-a]pyrimidine] |  |  |  | 100 | > 300 |  |  |  |  |  | — (A dash indicates the absence of anticonvulsant activity and neurotoxicity at the maximum dose administered (300 mg/kg)) | — (A dash indicates the absence of anticonvulsant activity and neurotoxicity at the maximum dose administered (300 mg/kg)) | 100 | > 300 |  |  | 148 to 149 | 
